Data reported in US9920012B2, “Indazole guanidine F1F0-ATPase inhibitors and therapeutic uses thereof” (Lycera Corporation, priority 2012, dated 2018).
Structures can show the parent of a compound that is named as a salt. Where two headings read alike, the source gives them in different places.

Key:
F1F0-ATPase = biological target: T1, F1F0-ATPase (Bos taurus, UniProt P13621); assay: Inhibition of F1F0-ATPase activity in synthesizing ATP; assay type: biochemical; details: inhibition of ATP synthesis; detection limit IC50=16 μM; read-out: ATP Syn IC50
T1 construct: from tissue
Experimental: (§1) Exemplary compounds described in above Examples were tested for activity against F1F0-ATPase by measuring the ability of the compounds to inhibit ATP synthesis. In addition, the compounds were assessed for cytotoxicity in Ramos cells. Inhibition of F1F0-ATPase activity in synthesizing ATP and cytotoxicity in Ramos cells were measured according to the procedures described in K. M. Johnson et al. Chemistry & Biology 2005, 12, 485-496.

Ramos cells = assay: Cytotoxicity in Ramos cells; assay type: cell-based; details: detection limit EC50=16 μM, read-out: Ramos Cell EC50
Experimental: as §1

CC(C)(O)CN/C(=N/C(=O)c1ccc(O)cc1)Nc1n[nH]c2cc(F)ccc12 [Compound A-90]
IC50 (F1F0-ATPase): > 16 µM | EC50 (Ramos cells): > 16 µM

CC(C)(C)N/C(=N/C(=O)c1cccc(O)c1)Nc1n[nH]c2cc(F)ccc12 [Compound A-96]
IC50 (F1F0-ATPase): < 5 µM | EC50 (Ramos cells): < 5 µM

CCOCCN/C(=N/C(=O)c1ccc(F)c(F)c1)Nc1n[nH]c2cc(C(F)(F)F)ccc12 [Compound A-12]
IC50 (F1F0-ATPase): < 5 µM | EC50 (Ramos cells): < 5 µM

CC(C)CN/C(=N/C(=O)c1ccc(F)c(F)c1)Nc1n[nH]c2c(O)ccc(F)c12 [Compound A-56]
IC50 (F1F0-ATPase): < 5 µM | EC50 (Ramos cells): < 5 µM

CC(C)CN/C(=N/C(=O)c1ccc(F)c(F)c1)Nc1n[nH]c2ccccc12 [Compound A-35]
IC50 (F1F0-ATPase): > 16 µM | EC50 (Ramos cells): > 16 µM

CC(C)(C)NC(=NC(=O)c1cccc(Cl)c1)Nc1n[nH]c2cc(Cl)c(F)cc12 [Compound A-104]
IC50 (F1F0-ATPase): < 5 µM | EC50 (Ramos cells): < 5 µM

COCC(C)NC(=NC(=O)c1ccc(Cl)cc1)Nc1n[nH]c2cc(Cl)ccc12 (stereo not shown) [Compound A-64]
IC50 (F1F0-ATPase): < 5 µM | EC50 (Ramos cells; Homo sapiens): < 5 µM

CC(C)(O)CN/C(=N/C(=O)c1ccc(F)c(F)c1)Nc1n[nH]c2cc(F)ccc12 [Compound A-83]
IC50 (F1F0-ATPase): < 5 µM | EC50 (Ramos cells): < 5 µM

O=C(/N=C(/NCCOCCO)Nc1n[nH]c2cc(C(F)(F)F)ccc12)c1ccc(Cl)c(F)c1 [Compound A-22]
IC50 (F1F0-ATPase): > 16 µM | EC50 (Ramos cells): > 16 µM

COC[C@H](C)N/C(=N/C(=O)c1ccc(F)c(F)c1)Nc1n[nH]c2cc(Cl)ccc12 [Compound 1, (S)-N-(((6-Chloro-1H-indazol-3-yl)amino)((1-methoxypropan-2-yl)amino)methylene)-3,4-difluorobenzamide]
IC50 (F1F0-ATPase): < 5 µM | EC50 (Ramos cells; Homo sapiens): < 5 µM

CC(C)CN/C(=N/C(=O)c1ccc(Cl)c(F)c1)Nc1n[nH]c2cc(C(F)(F)F)ccc12 [Compound A-14]
IC50 (F1F0-ATPase): < 5 µM | EC50 (Ramos cells): < 5 µM

CCOCCNC(=NC(=O)c1ccc(F)c(F)c1)Nc1n[nH]c2c(C(F)(F)F)cccc12 [Compound A-60]
IC50 (F1F0-ATPase): 5 to 16 µM | EC50 (Ramos cells; Homo sapiens): > 16 µM

CCOCCN/C(=N/C(=O)c1ccc(Cl)c(F)c1)Nc1n[nH]c2cc(C(F)(F)F)ccc12 [Compound A-20]
IC50 (F1F0-ATPase): < 5 µM | EC50 (Ramos cells): > 16 µM

CC1(CN/C(=N/C(=O)c2ccc(F)c(F)c2)Nc2n[nH]c3ccccc23)COC1 [Compound A-39]
IC50 (F1F0-ATPase): 5 to 16 µM | EC50 (Ramos cells): > 16 µM

O=C(/N=C(/Nc1cc(F)cc(Cl)c1)Nc1n[nH]c2ccccc12)c1ccc(Cl)cc1 [Compound A-111]
IC50 (F1F0-ATPase): < 5 µM | EC50 (Ramos cells; Homo sapiens): 5 to 16 µM

CC(C)CN/C(=N/C(=O)c1ccc(F)c(F)c1)Nc1n[nH]c2ccc(Br)cc12 [Compound A-67]
IC50 (F1F0-ATPase): < 5 µM | EC50 (Ramos cells): < 5 µM

CCOCCNC(=NC(=O)c1cccc(Cl)c1)Nc1n[nH]c2cc(F)ccc12 [Compound A-99]
IC50 (F1F0-ATPase): < 5 µM | EC50 (Ramos cells): 5 to 16 µM

COC[C@H](C)N/C(=N/C(=O)c1ccc(Cl)cc1)Nc1nn(C)c2cc(C(F)(F)F)ccc12 [Compound A-115]
IC50 (F1F0-ATPase): > 16 µM | EC50 (Ramos cells; Homo sapiens): > 16 µM

CCOCCN/C(=N/C(=O)c1ccc(Cl)cc1)Nc1n[nH]c2cc(F)ccc12 [Compound A-82]
IC50 (F1F0-ATPase): < 5 µM | EC50 (Ramos cells): < 5 µM

CCOCCNC(=NC(=O)c1ccc(F)c(F)c1)Nc1n[nH]c2cc(Cl)c(F)cc12 [Compound A-102]
IC50 (F1F0-ATPase): < 5 µM | EC50 (Ramos cells): < 5 µM

CC(C)CN/C(=N/C(=O)c1ccc(N2CCOCC2)nc1)Nc1n[nH]c2cc(C(F)(F)F)ccc12 [Compound A-24]
IC50 (F1F0-ATPase): < 5 µM | EC50 (Ramos cells): 5 to 16 µM

CCOCCNC(=NC(=O)c1ccc(F)c(F)c1)Nc1n[nH]c2ccc(C(F)(F)F)cc12 [Compound A-54]
IC50 (F1F0-ATPase): < 5 µM | EC50 (Ramos cells; Homo sapiens): > 16 µM

CCOCCN/C(=N/C(=O)c1ccc(Cl)cc1)Nc1n[nH]c2cc(Cl)ccc12 [Compound A-63]
IC50 (F1F0-ATPase): < 5 µM | EC50 (Ramos cells): 5 to 16 µM

CC(C)N/C(=N/C(=O)c1ccc(F)c(F)c1)Nc1n[nH]c2cc(C(F)(F)F)ccc12 [Compound A-10]
IC50 (F1F0-ATPase): < 5 µM | EC50 (Ramos cells): < 5 µM

CC(C)(C)N/C(=N/C(=O)c1ccc(F)c(F)c1)Nc1n[nH]c2cncc(Cl)c12 [Compound A-40]
IC50 (F1F0-ATPase): < 5 µM | EC50 (Ramos cells): < 5 µM

CCC(C)NC(=NC(=O)c1ccc(Cl)c(F)c1)Nc1n[nH]c2cc(C(F)(F)F)ccc12 (stereo not shown) [Compound A-16]
IC50 (F1F0-ATPase): < 5 µM | EC50 (Ramos cells; Homo sapiens): 5 to 16 µM

O=C(/N=C(\Nc1n[nH]c2cc(C(F)(F)F)ccc12)NC1CCCC1)c1ccc(Cl)c(F)c1 [Compound A-19]
IC50 (F1F0-ATPase): < 5 µM | EC50 (Ramos cells; Homo sapiens): < 5 µM

CC(C)CNC(=NC(=O)c1ccc(O)cc1)Nc1n[nH]c2cc(F)ccc12 [Compound A-109]
IC50 (F1F0-ATPase): 5 to 16 µM | EC50 (Ramos cells): 5 to 16 µM

COC[C@H](C)NC(=NC(=O)c1ccc(F)c(F)c1)Nc1n[nH]c2cc(Cl)c(F)cc12 [Compound A-103]
IC50 (F1F0-ATPase): < 5 µM | EC50 (Ramos cells): < 5 µM

CC(C)(O)CN/C(=N/C(=O)c1cccc(Cl)c1)Nc1n[nH]c2cc(F)ccc12 [Compound A-87]
IC50 (F1F0-ATPase): > 16 µM | EC50 (Ramos cells): > 16 µM

O=C(/N=C(\Nc1n[nH]c2cc(C(F)(F)F)ccc12)NC1CCC1)c1ccc(N2CCOCC2)nc1 [Compound A-25]
IC50 (F1F0-ATPase): < 5 µM | EC50 (Ramos cells; Homo sapiens): 5 to 16 µM

COCC(C)NC(=NC(=O)c1ccc(F)c(F)c1)Nc1n[nH]c2cncc(Cl)c12 (stereo not shown) [Compound A-43]
IC50 (F1F0-ATPase): > 16 µM | EC50 (Ramos cells; Homo sapiens): > 16 µM

CCOCCN/C(=N/C(=O)c1ccc(F)c(F)c1)Nc1n[nH]c2cccnc12 [Compound A-49]
IC50 (F1F0-ATPase): > 16 µM | EC50 (Ramos cells): > 16 µM

CCOCCCN/C(=N/C(=O)c1ccc(F)c(F)c1)Nc1n[nH]c2c(F)cccc12 [Compound A-77]
IC50 (F1F0-ATPase): 5 to 16 µM | EC50 (Ramos cells): < 5 µM

CC(C)CNC(=NC(=O)c1ccc(F)c(F)c1)Nc1n[nH]c2cc(Cl)c(F)cc12 [Compound A-101]
IC50 (F1F0-ATPase): < 5 µM | EC50 (Ramos cells): < 5 µM

COC[C@H](C)NC(=NC(=O)c1cccc(Cl)c1)Nc1n[nH]c2cc(Cl)c(F)cc12 [Compound A-107]
IC50 (F1F0-ATPase): < 5 µM | EC50 (Ramos cells): < 5 µM

COCC(C)NC(=NC(=O)c1cccc(Cl)c1)Nc1n[nH]c2cc(F)ccc12 (stereo not shown) [Compound A-85]
IC50 (F1F0-ATPase): < 5 µM | EC50 (Ramos cells; Homo sapiens): > 16 µM

COC[C@H](C)NC(=NC(=O)c1ccc(F)c(F)c1)Nc1nn(C(=O)[C@@H](N)C(C)C)c2cc(C(F)(F)F)ccc12 [Compound 6, N-(((1-((S)-2-Amino-3-methylbutanoyl)-6-(trifluoromethyl)-1H-indazol-3-yl)amino)(((S)-1-methoxypropan-2-yl)amino)methylene)-3,4-difluorobenzamide hydrochloride salt]
IC50 (F1F0-ATPase): 5 to 16 µM | EC50 (Ramos cells; Homo sapiens): > 16 µM

CC(C)CNC(=NC(=O)c1ccc(O)cc1)Nc1n[nH]c2cc(Cl)ccc12 [Compound A-108]
IC50 (F1F0-ATPase): < 5 µM | EC50 (Ramos cells): 5 to 16 µM

CC1(CNC(=NC(=O)c2ccc(F)c(F)c2)Nc2n[nH]c3ccc(C(F)(F)F)cc23)COC1 [Compound A-55]
IC50 (F1F0-ATPase): > 16 µM | EC50 (Ramos cells; Homo sapiens): > 16 µM

CC(C)N/C(=N/C(=O)c1cccc(F)c1)Nc1n[nH]c2ccc(C(F)(F)F)cc12 [Compound A-2]
IC50 (F1F0-ATPase): < 5 µM | EC50 (Ramos cells): > 16 µM

COc1cc(F)c2c(NC(=NC(=O)c3ccc(F)c(F)c3)NC(C)(C)C)n[nH]c2c1 [Compound A-110]
IC50 (F1F0-ATPase): < 5 µM | EC50 (Ramos cells): 5 to 16 µM

CC(C)(C)N/C(=N/C(=O)c1ccc(F)c(F)c1)Nc1n[nH]c2ccc(F)cc12 [Compound A-3]
IC50 (F1F0-ATPase): < 5 µM | EC50 (Ramos cells): 5 to 16 µM

CCOCCN/C(=N/C(=O)c1ccc(F)c(F)c1)Nc1n[nH]c2ccccc12 [Compound A-38]
IC50 (F1F0-ATPase): > 16 µM | EC50 (Ramos cells): > 16 µM

CC(C)(C)N/C(=N/C(=O)c1ccc(Cl)c(F)c1)Nc1n[nH]c2cc(C(F)(F)F)ccc12 [Compound A-13]
IC50 (F1F0-ATPase): < 5 µM | EC50 (Ramos cells): 5 to 16 µM

O=C(/N=C(/Nc1cc(F)cc(Cl)c1)Nc1n[nH]c2ccc(F)cc12)c1ccc(F)c(F)c1 [Compound A-112]
IC50 (F1F0-ATPase): < 5 µM | EC50 (Ramos cells; Homo sapiens): < 5 µM

CC(C)CNC(=NC(=O)c1cccc(Cl)c1)Nc1n[nH]c2cc(F)ccc12 [Compound A-98]
IC50 (F1F0-ATPase): < 5 µM | EC50 (Ramos cells): < 5 µM

CC(C)(C)CNC(=NC(=O)c1ccc(F)c(F)c1)Nc1n[nH]c2cccnc12 [Compound A-47]
IC50 (F1F0-ATPase): > 16 µM | EC50 (Ramos cells; Homo sapiens): > 16 µM

CC(C)(C)CN/C(=N/C(=O)c1ccc(F)c(F)c1)Nc1n[nH]c2ccc(C(F)(F)F)cc12 [Compound A-52]
IC50 (F1F0-ATPase): < 5 µM | EC50 (Ramos cells): < 5 µM

CC(C)N/C(=N/C(=O)c1ccc(Cl)c(F)c1)Nc1n[nH]c2cc(C(F)(F)F)ccc12 [Compound A-18]
IC50 (F1F0-ATPase): < 5 µM | EC50 (Ramos cells): > 16 µM
